From the supplement of paper PMC10627819

Assays:
Experiment in all cases: Bliss interaction score (quartile over a dose matrix) (fitness difference); higher = more antagonism (negative = synergy)
S. aureus Newman = system: S. aureus Newman
Outline: (§1)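 The Bliss score takes observed fitness and subtracts the expected fitness, calculated as a product of single-drug fitness values. Those single-drug values were inferred from the combination data. Fitness is OD595 at entry into stationary phase divided by the plate's robust no-drug mean, capped at 1, and the score is summarised by quartiles across technical, biological and donor/recipient replicates.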

B. subtilis 168 = system: B. subtilis 168
Outline: as §1

S. aureus DSM 20231 = system: S. aureus DSM 20231
Outline: as §1

S. pneumoniae D39V = system: S. pneumoniae D39V
Outline: as §1
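Also: first quartile when negative (synergy) and third quartile when positive (antagonism).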

| Structure (SMILES) | Bliss interaction score (S. aureus Newman) | Bliss interaction score (B. subtilis 168) | Bliss interaction score (S. aureus DSM 20231) | Bliss interaction score (S. pneumoniae D39V) |
| --- | --- | --- | --- | --- |
| N#CC(C#N)=NNc1cccc(Cl)c1 [CCCP] + O=C(O)[C@H]1/C(=C/CO)O[C@@H]2CC(=O)N21 [Clavulanic] | 0.0274 | 0.0453 | -0.315 | 0.0476 |
| CO/N=C(\C(=O)N[C@@H]1C(=O)N2C(C(=O)O)=C(COC(N)=O)CS[C@H]12)c1ccco1 [Cefuroxime] + N[C@@H]1CONC1=O [CycloserineD] | -0.0647 | -0.0514 | 0.114 | 0.0839 |
| C[C@H]1c2cccc(O)c2C(=O)C2=C(O)[C@]3(O)C(=O)C(C(N)=O)=C(O)[C@@H](N(C)C)[C@@H]3[C@@H](O)[C@@H]21 [Doxycycline] + CN[C@H](CC(C)C)C(=O)N[C@H]1C(=O)N[C@@H](CC(N)=O)C(=O)N[C@H]2C(=O)N[C@H]3C(=O)N[C@H](C(=O)N[C@H](C(=O)O)c4cc(O)cc(O)c4-c4cc3ccc4O)[C@H](O[C@H]3C[C@](C)(N)[C@@H](O)[C@H](C)O3)c3ccc(c(Cl)c3)Oc3cc2cc(c3O[C@@H]2O[C@H](CO)[C@@H](O)[C@H](O)[C@H]2O[C@H]2C[C@](C)(NCc3ccc(-c4ccc(Cl)cc4)cc3)[C@@H](O)[C@H](C)O2)Oc2ccc(cc2Cl)[C@H]1O [Oritavancin] | 0.0145 | 0.0303 | -0.0271 | 0.0456 |
| CN(C)[C@@H]1C(O)=C(C(N)=O)C(=O)[C@@]2(O)C(O)=C3C(=O)c4c(O)ccc(Cl)c4[C@@](C)(O)[C@H]3C[C@@H]12 [Clortetracycline] + C[C@H]1c2cccc(O)c2C(=O)C2=C(O)[C@]3(O)C(=O)C(C(N)=O)=C(O)[C@@H](N(C)C)[C@@H]3[C@@H](O)[C@@H]21 [Doxycycline] | -0.0257 | -0.0687 | -0.0625 | -0.0483 |
| CC1(C)S[C@@H]2[C@H](NC(=O)Cc3ccccc3)C(=O)N2[C@H]1C(=O)O [PenicillinG] + COc1ccc(C[C@H](N)C(=O)N[C@H]2[C@@H](O)[C@H](n3cnc4c(N(C)C)ncnc43)O[C@@H]2CO)cc1 [Puromycin] | 0.0759 | 0.0536 | -0.0369 | 0.0834 |
| N#CC(C#N)=NNc1cccc(Cl)c1 [CCCP] + O=C(O[C@@H]1Cc2c(O)cc(O)cc2O[C@@H]1c1cc(O)c(O)c(O)c1)c1cc(O)c(O)c(O)c1 [EGCG] | -0.0367 | -0.0905 | -0.0526 | 0.105 |
| O=C(O)c1cn(C2CC2)c2cc(N3CCNCC3)c(F)cc2c1=O [Ciprofloxacin] + CC[C@H]1OC(=O)[C@H](C)[C@@H](O[C@H]2C[C@@](C)(OC)[C@@H](O)[C@H](C)O2)[C@H](C)[C@@H](O[C@@H]2O[C@H](C)C[C@H](N(C)C)[C@H]2O)[C@](C)(O)C[C@@H](C)C(=O)[C@H](C)[C@@H](O)[C@]1(C)O [Erythromycin] | 0.0474 | 0.211 | 0.0597 | 0.065 |
| N#CC(C#N)=NNc1cccc(Cl)c1 [CCCP] + C[C@@H]1O[C@@H]1P(=O)(O)O [Fosfomycin] | 0.0906 | 0.0638 | 0.0417 | 0.0604 |
| CO/N=C(\C(=O)N[C@@H]1C(=O)N2C(C(=O)O)=C(COC(N)=O)CS[C@H]12)c1ccco1 [Cefuroxime] + Oc1cc(Cl)ccc1Oc1ccc(Cl)cc1Cl [Triclosan] | -0.0309 | 0.0538 | 0.0932 | 0.0619 |
| COc1ccc(C[C@H](N)C(=O)N[C@H]2[C@@H](O)[C@H](n3cnc4c(N(C)C)ncnc43)O[C@@H]2CO)cc1 [Puromycin] + Oc1cc(Cl)ccc1Oc1ccc(Cl)cc1Cl [Triclosan] | 0.0281 | 0.0476 | 0.0973 | 0.102 |
| CO/N=C(\C(=O)N[C@@H]1C(=O)N2C(C(=O)O)=C(COC(C)=O)CS[C@H]12)c1csc(N)n1 [Cefotaxime] + CCC[C@@H]1C[C@@H](C(=O)N[C@@H]([C@H]2O[C@H](SC)[C@H](O)[C@@H](O)[C@H]2O)[C@H](C)Cl)N(C)C1 [Clindamycin] | -0.0656 | 0.0327 | 0.0463 | 0.113 |
| CO/N=C(\C(=O)N[C@@H]1C(=O)N2C(C(=O)O)=C(COC(N)=O)CS[C@H]12)c1ccco1 [Cefuroxime] + CN[C@H](CC(C)C)C(=O)N[C@H]1C(=O)N[C@@H](CC(N)=O)C(=O)N[C@H]2C(=O)N[C@H]3C(=O)N[C@H](C(=O)N[C@H](C(=O)O)c4cc(O)cc(O)c4-c4cc3ccc4O)[C@H](O[C@H]3C[C@](C)(N)[C@@H](O)[C@H](C)O3)c3ccc(c(Cl)c3)Oc3cc2cc(c3O[C@@H]2O[C@H](CO)[C@@H](O)[C@H](O)[C@H]2O[C@H]2C[C@](C)(NCc3ccc(-c4ccc(Cl)cc4)cc3)[C@@H](O)[C@H](C)O2)Oc2ccc(cc2Cl)[C@H]1O [Oritavancin] | -0.103 | -0.0309 | -0.0743 | 0.0536 |
| CC1(C)S[C@@H]2[C@H](NC(=O)Cc3ccccc3)C(=O)N2[C@H]1C(=O)O [PenicillinG] + CN(N=O)C(=O)N[C@@H](C=O)[C@@H](O)[C@H](O)[C@H](O)CO [Streptozotocin] | -0.0606 | 0.0513 | -0.0545 | 0.0394 |
